Key:
Assay type in all cases: physicochemical
[1] = Thermogravimetric analysis of crystalline form; settings: range from 25° C. up to 205° C.
Experimental: (§1) The crystalline forms may be further characterised by the presence of one or more of the additional properties listed below: • (i) for Form I • (I) when characterised by thermogravimetric analysis, a weight loss of approx. 0.8% occurs in the range from 25° C. up to 205° C., and/or • (II) when characterised by differential scanning calorimetry, at a heating rate of 10° C. per minute in a closed cup with a pinhole under flowing nitrogen, a melting temperature (Tm) having an onset at about 194° C. and/or an associated endotherm of melting of about 96 J/g; and/or • (III) when stored at 80% RH (ambient) less than 0.2% moisture is adsorbed. • (i) for Form II • (I) when characterised by thermogravimetric analysis, a weight loss of approx. 0.2% occurs in the range from 25° C. up to 205° C., and/or • (II) when characterised by differential scanning calorimetry, at a heating rate of 10° C. per minute in a closed cup with a pinhole under flowing nitrogen, a melting temperature (Tm) having an onset at about 193° C. and/or an associated endotherm of melting of about 105 J/g.

[2] = Moisture adsorption on storage at 80% RH; settings: stored at 80% RH (ambient)
Experimental: as §1

[3] = Thermodynamic stability of crystal form; settings: crystallised from THF/ethanol

Row | weight loss by thermogravimetric analysis [1] | moisture adsorbed [2] | thermodynamic stability of crystal form [3] | Structure (SMILES)
1 | approx. 0.8% | less than 0.2% | – | CCOC(=O)c1cc(C#N)c(N2CCC(C(=O)NS(=O)(=O)Cc3ccccc3)CC2)nc1C [Form I, 6-(4-{[(benzylsulfonyl)amino]carbonyl}piperidin-1-yl)-5-cyano-2-methylnicotinic acid ethyl ester]
2 | approx. 0.2% | – | thermodynamically stable form | CCOC(=O)c1cc(C#N)c(N2CCC(C(=O)NS(=O)(=O)Cc3ccccc3)CC2)nc1C [Form II, 6-(4-{[(benzylsulfonyl)amino]carbonyl}piperidin-1-yl)-5-cyano-2-methylnicotinic acid ethyl ester]

Reference: patent US20080027104A1, “Novel Crystalline Forms 2” (AstraZeneca AB, priority 2006, published 2008)
